Results from patent US11090304B2 (Amgen Inc., priority 2018, dated 2021).
Read-outs that look alike come from different tables or passages of the source.

Assays:
[1] = system: Phosphorylation of ERK1/2 in A549 cells; assay: Phospho-ERK1/2 MSD assay in A549 cells; type: cell-based; conditions: Homo sapiens
In short: (§1)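 MSD electrochemiluminescence readout of phospho-ERK1/2 in whole-cell lysates, IC50 by 4-parameter logistic fit. Compound titrations were applied for 2 or 4 h at 37 °C, 5% CO2, followed by 10 ng/mL EGF stimulation for 10 min before lysis.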

[2] = system: Phosphorylation of ERK1/2 in MIA PaCa-2 cells; assay: Phospho-ERK1/2 MSD assay in MIA PaCa-2 cells; type: cell-based; conditions: Homo sapiens
In short: as §1

[3] = target: GDP-bound KRAS protein (aa 1-169), containing both G12C and C118A amino acid substitutions (Homo sapiens, UniProt P01116, C118A/G12C); assay: Coupled nucleotide exchange assay (SOS-mediated, AlphaScreen); type: biochemical; conditions: for IC50: read-out: Coupled exchange IC50 (5 min); for IC50 / Coupled exchange IC50 (5 min): 5 min compound pre-incubation; for Coupled exchange IC50 (2 h): 2 h compound pre-incubation
[4] = A549, 2 h, read-out: p-ERK IC50 (2 h; A549), 2 h compound treatment
[5] = MIA PaCa-2, 2 h, read-out: p-ERK IC50 (2 h; MIA PaCa-2), 2 h compound treatment
[6] = A549, 4 h, read-out: p-ERK IC50 (4 h; A549), 4 h compound treatment
[7] = MIA PaCa-2, 4 h, read-out: p-ERK IC50 (4 h; MIA PaCa-2), 4 h compound treatment

Chain of GDP-bound KRAS protein (aa 1-169), containing both G12C and C118A amino acid substitutions (P01116 1-169 isoform P01116-2 G12C/C118A): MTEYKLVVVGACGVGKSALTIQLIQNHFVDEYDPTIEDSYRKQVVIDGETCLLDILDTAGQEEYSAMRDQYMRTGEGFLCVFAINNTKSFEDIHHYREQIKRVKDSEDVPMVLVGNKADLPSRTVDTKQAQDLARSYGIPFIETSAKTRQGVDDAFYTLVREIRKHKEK

SMILES	IC50 [1, 4]	IC50 [2, 5]	IC50 [3]	Coupled exchange IC50 (5 min) [3]	IC50 [1, 6]	IC50 [2, 7]	Coupled exchange IC50 (2 h) [3]
C=CC(=O)N1CCN(c2nc(=O)n(-c3ncccc3C(C)C)c3nc(-c4c(O)cccc4F)c(Cl)cc23)[C@@H](C)C1 [Example 54-57, 6-chloro-7-(2-fluoro-6-hydroxyphenyl)-4-((2S)-2-methyl-4-(2-propenoyl)-1-piperazinyl)-1-(3-(2-propanyl)-2-pyridinyl) pyrido[2,3-d]pyrimidin-2(1H)-one]	≥ 10 µM	53 nM	83 nM	–	–	–	–
C=CC(=O)N1CCN(c2nc(=O)n(-c3ccncc3C3CC3)c3nc(-c4c(O)cccc4F)c(Cl)cc23)[C@@H](C)C1 [Example 54-59, 6~chloro-1-(3-cyclopropyl-4-pyridinyl)-7-(2-fluoro-6-hydroxyphenyl)-4-((2S)-2-methyl-4-(2-propenoyl)-1-piperazinyl) pyrido[2,3-d]pyrimidin-2(1H)-one]	≥ 10 µM	712 nM	–	0.22 | nda μM	–	–	–
C=CC(=O)N1CCN(c2nc(=O)n(-c3c(CC)cccc3CC)c3nc(-c4ccccc4F)c(Cl)cc23)[C@@H](C)C1 [Example 54-60, 6-ehloro-1-(2,6-diethylphenyl)-7-(2-fluorophenyl)-4-((2S)-2-methyl-4-(2-propenoyl)-1-piperazinyl) pyrido[2,3-d]pyrimidin-2(1H)-one]	≥ 10 µM	145 nM	–	0.216 µM	≥ 11.1 µM	91 nM	0.093 µM
C=CC(=O)N1CCN(c2nc(=O)n(-c3c(CC)cccc3CC)c3nc(Cl)c(Cl)cc23)[C@@H](C)C1 [Example 54-61, 6,7-dichloro-1-(2,6-diethylphenyl)-4-((2S)-2-methyl-4-(2-propenoyl)-1-piperazinyl) pyrido[2,3-d]pyrimidin-2(1H)-one]	–	–	–	–	≥ 11.1 µM	1370 nM	nda | 0.379 μM
C=CC(=O)N1CCN(c2nc(=O)n(-c3c(CC)cccc3CC)c3nc(-c4ccccc4)c(Cl)cc23)[C@@H](C)C1 [Example 54-62, 6-chloro-1-(2,6-diethylphenyl)-4-((2S)-2-methyl-4-(2-propenoyl)-1-piperazinyl)-7-phenyl-pyrido[2,3-d]pyrimidin-2(1H)-one]	≥ 10 µM	407 nM	–	0.808 µM	≥ 100 µM	223 nM	0.172 µM
C=CC(=O)N1CCN(c2nc(=O)n(-c3c(CC)cccc3CC)c3nc(-c4ccccc4O)c(Cl)cc23)[C@@H](C)C1 [Example 54-63, 6-chloro-1-(2,6-diethylphenyl)-7-(2-hydroxyphenyl)-4-((2S)-2-methyl-4-(2-propenoyl)-1-piperazinyl) pyrido[2,3-d]pyrimidin-2(1H)-one]	–	291 nM	–	0.845 µM	≥ 33.3 µM	136 nM	0.164 µM
C=CC(=O)N1CCN(c2nc(=O)n(-c3c(CC)cccc3CC)c3nc(-c4c(F)cccc4F)c(Cl)cc23)[C@@H](C)C1 [Example 54-65, 6-chloro-1-(2,6-diethylphenyl)-7-(2,6-difluorophenyl)-4-((2S)-2-methyl-4-(2-propenoyl)-1-piperazinyl) pyrido[2,3-d]pyrimidin-2(1H)-one]	≥ 10 µM	140 nM	–	0.253 µM	≥ 100 µM	133 nM	0.054 µM
C=CC(=O)N1CCN(c2nc(=O)n(-c3c(C)cccc3C)c3nc(-c4c(O)cccc4F)c(Cl)cc23)[C@@H](C)C1 [Example 54-69, 6-chloro-1-(2,6-dimethylphenyl)-7-(2-fluoro-6-hydroxyphenyl)-4-((2S)-2-methyl-4-(2-propenoyl)-1-piperazinyl) pyrido[2,3-d]pyrimidin-2(1H)-one]	≥ 10 µM	199 nM	306 nM	–	–	–	–
C=CC(=O)N1CCN(c2nc(=O)n(-c3ccccc3C(C)C)c3nc(-c4cc(O)ccc4Br)c(Cl)cc23)[C@@H](C)C1 [Example 54-87, 7-(2-bromo-5-hydroxyphenyl)-6-chloro-4-((2S)-2-methyl-4-(2-propenoyl)-1-piperazinyl)-1-(2-(2-propanyl)phenyl)pyrido [2,3-d]pyrimidin-2(1H)-one]	≥ 10 µM	66 nM	–	0.109 | nda μM	–	–	–
C=CC(=O)N1CCN(c2nc(=O)n(-c3ccccc3C(C)C)c3nc(-c4cc(O)ccc4F)c(Cl)cc23)[C@@H](C)C1 [Example 54-88, 6-chloro-7-(2-fluoro-5-hydroxyphenyl)-4-((2S)-2-methyl-4-(2-propenoyl)-1-piperazinyl)-1-(2-(2-propanyl)phenyl)pyrido [2,3-d]pyrimidin-2(1H)-one]	≥ 10 µM	101 nM	–	0.139 | nda μM	–	–	–
C=CC(=O)N1CCN(c2nc(=O)n(-c3c(CC)cccc3CC)c3nc(-c4ccccc4F)c(Cl)cc23)[C@@H](C(=O)OC)C1 [Example 55-30, methyl (2R)-1-(6-chloro-1-(2,6-diethylphenyl)-7-(2-fluorophenyl)-2-oxo-1,2-dihydropyrido[2,3-d]pyrimidin-4-yl)-4-(2-propenoyl)-2-piperazinecarboxylate]	≥ 10 µM	1610 nM	–	1.95 | nda μM	–	–	–
C=CC(=O)N1CCN(c2nc(=O)n(-c3ccccc3C(C)C)c3nc(-c4ccccc4F)c(F)cc23)[C@@H](C)C1 [Example 57-7, 6-fluoro-7-(2-fluorophenyl)-4-((2S)-2-methyl-4-(2-propenoyl)-1-piperazinyl)-1-(2-(2-propanyl)phenyl)pyrido[2,3-d]pyrimidin-2(1H)-one]	≥ 10 µM	450 nM	–	0.991 | nda μM	–	–	–
C=CC(=O)N1CCN(c2nc(=O)n(CC3(C(F)(F)F)CC3)c3nc(-c4c(O)cccc4F)c(Cl)cc23)CC1 [Example 60-3, 6-chloro-7-(2-fluoro-6-hydroxyphenyl)-4-(4-(2-propenoyl)-1-piperazinyl)-1-((1-(trifluoromethyl)cyclopropyl)methyl)pyrido[2,3-d]pyrimidin-2(1H)-one]	≥ 100 µM	657 nM	–	1.02 µM	65 µM	552 nM	0.101 µM
C=CC(=O)N1CCN(c2nc(=O)n(CC(C)(C)C)c3nc(-c4c(O)cccc4F)c(Cl)cc23)CC1 [Example 60-5, 6-chloro-1-(2,2-dimethylpropyl)-7-(2-fluoro-6-hydroxyphenyl)-4-(4-(2-propenoyl)-1-piperazinyl)pyrido[2,3-d]pyrimidin-2(1H)-one]	52.4 µM	492 nM	–	0.589 µM	60.5 µM	447 nM	0.102 µM
C=CC(=O)N1CCN(c2nc(=O)n(CC(C)(C)C)c3nc(-c4ccccc4F)c(Cl)cc23)CC1 [Example 60-6]	–	–	–	1.85 µM	67.7 µM	1040 nM	0.161 µM
C=CC(=O)N1CCN(c2nc(=O)n(-c3nccnc3C3CC3)c3nc(-c4c(O)cccc4F)c(Cl)cc23)[C@@H](C)C1 [Example 60-8, 6-chloro-1-(3-cyclopropyl-2-pyrazinyl)-7-(2-fluoro-6-hydroxyphenyl)-4-((2S)-2-methyl-4-(2-propenoyl)-1-piperazinyl)pyrido[2,3-d]pyrimidin-2(1H)-one]	≥ 10 µM	72 nM	–	0.173 | nda μM	–	–	–
C=CC(=O)N1CCN(c2nc(=O)n(-c3c(C4CC4)ncnc3C3CC3)c3nc(-c4ccccc4F)c(Cl)cc23)[C@@H](C)C1 [Example 60-11, 6-chloro-1-(4,6-dicyclopropyl-5-pyrimidinyl)-7-(2-fluorophenyl)-4-((2S)-2-methyl-4-(2-propenoyl)-1-piperazinyl)pyrido[2,3-d]pyrimidin-2(1H)-one]	≥ 10 µM	63 nM	–	0.08 | nda μM	–	–	–
C=CC(=O)N1CCN(c2nc(=O)n(-c3ccccc3C)c3nc(-c4ccccc4F)c(Cl)cc23)[C@@H](C)C1 [Example 60-14, 6-chloro-7-(2-fluorophenyl)-1-(2-methylphenyl)-4-((2S)-2-methyl-4-(2-propenoyl)-1-piperazinyl)pyrido[2,3-d]pyrimidin-2(1H)-one]	≥ 10 µM	946 nM	–	2.24 | nda μM	–	–	–
C=CC(=O)N1CCN(c2nc(=O)n(-c3ccccc3C)c3nc(-c4c(O)cccc4F)c(Cl)cc23)[C@@H](C)C1 [Example 60-15, 6-chloro-7-(2-fluoro-6-hydroxyphenyl)-1-(2-methylphenyl)-4-((2S)-2-methyl-4-(2-propenoyl)-1-piperazinyl)pyrido[2,3-d]pyrimidin-2(1H)-one]	≥ 10 µM	492 nM	–	0.686 | nda μM	–	–	–
C=CC(=O)N1CCN(c2nc(=O)n(-c3ccccc3C(C)C)c3nc(-c4cc(OC)ccc4Br)c(Cl)cc23)[C@@H](C)C1 [Example 60-26, 7-(2-bromo-5-methoxyphenyl)-6-chloro-4-((2S)-2-methyl-4-(2-propenoyl)-1-piperazinyl)-1-(2-(2-propanyl)phenyl)pyrido[2,3-d]pyrimidin-2(1H)-one]	≥ 10 µM	387 nM	–	0.809 | nda μM	–	–	–
